Data from patent US8853229B2, “Composition containing statins and omega-3 fatty acids” (Sigma-Tau Industrie Farmaceutiche Riunite S.p.A., priority 2004, dated 2014).

What was measured:
Type in all cases: in vivo, mouse
C57BL/KsJ db/db mice [1] = experiment: Blood glucose levels of db/db mice (antidiabetic activity); details: for Glucose: mean ± S.E.
From the text: Mutations in laboratory animals have made it possible to develop models that present non-insulin-dependent diabetes associated with obesity, hyperlipidaemia and insulin resistance and that enable us to test the efficacy of new antidiabetic compounds (Reed and Scribner, Diabetes, obesity and metabolism 1: 75-86, 1999).
A much used genetically diabetic mouse model is the C57BL/KsJ db/db mouse.
The genetic basis of this model is a defect in the leptin receptor gene which gives rise to leptin resistance and leads to hyperphagia, obesity, hyperinsulinaemia and insulin resistance, with subsequent symptoms of insufficient insulin secretion and hyperglycaemia (Kodama et al., Diabetologia 37: 739-744, 1994; Chen et al., Cell 84: 491-495, 1996). Since hyperglycaemia is accompanied by obesity and insulin resistance, the db/db mouse has characteristics that are close to those of type 2 diabetes in man and is useful for assaying insulin-sensitising compounds.
(§1) The C57BL/KsJ db/db mice used in the experiments were supplied by Jackson Lab (via Ch. River). After 10 days of acclimatisation in standard conditions (22±2° C.; 55±15% humidity; 15-20 air changes/hour; 12 hour light-darkness cycle with light from 7 a.m. to 7 p.m.) on a standard 4 RF21 diet (Mucedola), blood samples were taken in post-absorption conditions (fasting from 8.30 a.m. to 4.30 p.m.) from the caudal vein with the aid of a Jelco 22G catheter (Johnson and Johnson). Glucose, insulin, triglyceride, cholesterol, free fatty acid and urea levels were checked in the plasma to ensure well-matched distribution of the mice in the treatment groups.
At the start of treatment, the body weight of the animals was checked and monitoring of the animals' consumption of water and feed was scheduled.
(§2) The mice were divided into groups and treated orally twice daily with:
(§3) Omega-3 fatty acid (EPA+DHA 1:1) 200 mg/kg;
(§4) Omega-3 fatty acid (200 mg/kg)+simvastatin (100 mg/kg);
(§5) Omega-3 fatty acid (200 mg/kg)+simvastatin (100 mg/kg); Coenzyme Q10 (50 mg/kg)+resveratrol (5 mg/kg)+policosanols (hexacosanol 25 mg/kg)+pantethine (100 mg/kg+selenium (0.5 μg/kg)+zinc (2.5 mg/kg).
(§6) In the course of the experiment, serum glucose levels, glucose tolerance (OGTT), a number of lipid status variables and weight gain were monitored.

C57BL/KsJ db/db mice [2] = experiment: Oral glucose tolerance test (OGTT) in db/db mice; details: oral twice daily for 18 days, OGTT glucose 3 g/kg, fasted 18 hours, 5 hours after last treatment
Procedure: (§7) The C57BL/KsJ db/db mice used in the experiments were supplied by Jackson Lab (via Ch. River). […] Glucose, insulin, triglyceride, cholesterol, free fatty acid and urea levels were checked in the plasma to ensure well-matched distribution of the mice in the treatment groups.
as §2, §3, §4, §5, §6

C57BL/KsJ db/db mice [3] = experiment: Plasma fructosamine levels of db/db mice; details: oral twice daily for 25 days, post-absorption condition, 7.30 hours after last treatment
Procedure: as §1, §2, §3, §4, §5, §6

C57BL/KsJ db/db mice [4] = experiment: Plasma triglyceride levels of db/db mice; details: oral twice daily for 25 days, post-absorption condition, 7.30 hours after last treatment
Procedure: as §7, §2, §3, §4, §5, §6

C57BL/KsJ db/db mice [5] = experiment: Plasma HDL-cholesterol levels of db/db mice; details: oral twice daily for 25 days, post-absorption conditions, 7.30 hours after last treatment
Procedure: as §1, §2, §3, §4, §5, §6

[6] = oral twice daily for 12 days, feeding condition, approx. 15 hours after last treatment
[7] = oral twice daily for 18 days, fasted for 18 hours, 5 hours after last treatment

## CCC(C)(C)C(=O)O[C@H]1C[C@@H](C)C=C2C=C[C@H](C)[C@H](CC[C@@H]3C[C@@H](O)CC(=O)O3)[C@H]21 [Simvastatin]
C57BL/KsJ db/db mice [1]; [6]
  % Variation (glucose) vs control: −7.6%
  Glucose: 450 ± 21 mg/dL
C57BL/KsJ db/db mice [1]; oral twice daily for 12 days, post-absorption condition (fasting 9 a.m. to 5 p.m.), 8 hours after last treatment
  Glucose: 419 ± 33 mg/dL
C57BL/KsJ db/db mice [1]; oral twice daily for 12 days, post-absorption condition, 8 hours after last treatment
  % Variation (glucose) vs control: 1.2%
C57BL/KsJ db/db mice [1]; [7]
  % Variation (glucose) vs control: −5.5%
  Glucose: 325 ± 27 mg/dL
C57BL/KsJ db/db mice [2]
  % Variation (AUC glucose, OGTT) vs control: −5.9%
C57BL/KsJ db/db mice [2]; mean ± S.E.
  AUC Glucose (OGTT): 48174 ± 3555 u.a.
C57BL/KsJ db/db mice [3]
  % Variation (fructosamine) vs control: −2.5%
C57BL/KsJ db/db mice [3]; mean ± S.E.
  Fructosamine: 0.78 ± 0.12 mM
C57BL/KsJ db/db mice [4]
  Variation (triglycerides) vs control: −16.5%
C57BL/KsJ db/db mice [4]; mean ± S.E.
  Triglycerides: 79.7 ± 5.1 mg/dL
C57BL/KsJ db/db mice [5]
  % Variation (HDL-cholesterol) vs control: −11.7%
C57BL/KsJ db/db mice [5]; mean ± S.E.
  HDL-cholesterol: 72.4 ± 4.6 mg/dL
